Assay results reported in patent US9730905B2, “Monounsaturated fatty acid for preventing and/or treating skin complexion imperfections” (L'OREAL, priority 2010, dated 2017).

System: skin tissue
Assay: Inventors' demonstration of the effect of monounsaturated fatty acids on skin tissue and complexion
Settings: in vivo

Compound: CCCCCCCCCCC/C=C\CCCCC(=O)O [petroselinic acid]
- restoration of normal skin tissue / complexion: lead to a restoration of normal skin tissue in perfect homeostasis
